# Assay results from patent US20210401859A1, “METHODS OF TREATING CANCER IN BIOMARKER-IDENTIFIED PATIENTS WITH NON-COVALENT INHIBITORS OF CYCLIN-DEPENDENT KINASE 7 (CDK7)” (Syros Pharmaceuticals, Inc., priority 2018, published 2021).
# Tests used:
# [1] = Plasma exposure on repeated daily dosing in mice; type: in vivo; settings: repeated daily dosing at therapeutic doses in mice (1-6 mg/kg)
# [2] = system: BR5010, LU5178, OV15398 PDX models; experiment: TGI in PDX models BR5010 (TNBC), LU5178 (SCLC), OV15398 (HGSOC); type: in vivo, NOD/SCID mice; settings: TNBC 10 mg/kg QD or 5 mg/kg BID, HGSOC 3 mg/kg BID, PO 21 days, 21 days follow-up
# [3] = system: ST390 (modeling pancreatic ductal adenocarcinoma (PDAC)); experiment: TGI in PDAC PDX model ST390; type: in vivo, NOD/SCID mice; settings: 6 mg/kg QD, PO, vehicle ~1,250 mm^3
# Experimental: In the PDAC model, Compound 101 was orally administered to tumor-bearing NOD/SCID mice at 6 mg/kg QD. […] The % regression was calculated as: (Mean TV Compound 101 @ EOT)/(Mean TV Compound 101 @ Day 0)×100. The same calculations were used for end of study (day 42).
# [4] = system: 12 PDX models (SCLC, TNBC, HGSOC); experiment: TGI and tolerability in 12 PDX models of SCLC, TNBC and HGSOC; type: in vivo
# [5] = system: ovarian and breast tumor xenografts; experiment: Daily oral dosing in ovarian and breast tumor xenografts; type: in vivo
structure (smiles),measurement,setting,value
"CC1(C)CC[C@H](Nc2ncc(C(F)(F)F)c(-c3c[nH]c4c(P(C)(C)=O)c(C#N)ccc34)n2)CN1 [Compound 101, (S)-7-(dimethylphosphoryl)-3-(2-((6,6-dimethylpiperidin-3-yl)amino)-5-(trifluoromethyl)pyrimidin-4-yl)-1H-indole-6-carbonitrile]",plasma exposures,[1],dose proportional without accumulation
same,TGI (in words),[2],"deep and sustained TGI, including regressions"
same,tumor volume at day 21,[3],about 250 mm^3
same,"TGI at the end of the 21-day dosing period, all models","[4]; 6 or 10 mg/kg QD or 3 or 5 mg/kg BID PO, all 12 models",at least 50%
same,body weight loss / tolerability,"[4]; all once-daily doses tested, tumor-bearing mice",no evident body weight loss
same,tumor regrowth after treatment discontinuation,"[4]; subset 7/12 models, 21 days after treatment discontinuation",no evidence of tumor regrowth
same,TGI of deep responses in a subset of models,"[4]; subset of models (58%, 7/12), TGI or regression",> 95%
same,pharmacodynamic responses in xenograft tumor tissue,[5]; correlated with TGI,rapid (4 hours) and sustained (24 hours) dose-dependent pharmacodynamic responses
same,TGI (in words),[5]; daily oral dosing,dose-dependent TGI
same,lowest dose at which tumor regression was observed,[5]; daily oral dosing,one-fifth of MTD
